Experimental data as given in patent US5277897A, “In vivo enhancement of cellular accumulation of lipophilic cationic organometallic compounds by reduction of intramembrane potential” (Brigham and Women's Hospital, priority 1992, dated 1994).

Legend:
[1] = system: cultured chick myocardial cells; conditions: cited from earlier work
[2] = system: cultured chick heart cells; assay: Effect of MSA on Tc-MIBI net accumulation (FIG. 3); type: cell-based; conditions: MSA 5.4 mM
Procedure: FIG. 3. Effect of MSA on Tc-MIBI net accumulation. Preparations were incubated for the times indicated in Tc-MIBI loading buffer containing 5.4 mM KCl (.quadrature., .smallcircle.) or 5.4 mM K-MSA ( , ·; prepared by equimolar substitution of K-MSA KCl) in the absence (.quadrature., ) or presence (.smallcircle., ·) of TPB (10^-5 M). Each point represents the mean ±SEM of 3 determinations.
Control buffer was a modified Earle's balanced salt solution (MEBSS) with the following composition (mN) Na^30, 145; K^+, 5.4; Ca^2, 1.2; Mg^2+, 0.8; Cl, 152; H2 PO4, 0.8; SO4^2-, 0.8; dextrose, 5.6; HEPES, 4.0; and bovine calf serum, 1% (v/v); […]; 37° C. K-methanesulfonate was made by titration of methanesulfonic acid with KOH (Piwnica-Worms, D., et al., J. Gen. Physiol. 81:731-748 (1983)) and replaced […] in some solutions by equimolar substitution where indicated. Natetraphenylborate, CCCP, bumetanide and valinomycin were dissolved into DMSO prior to addition to buffer. DMSO alone has no significant affect on contractile activity, action potential configuration (Lieberman, M., et al., Dev. Biol. 31:380-403 (1973)) or Tc-MIBI uptake kinetics (Piwnica-Worms, D., et al., Circ. (in press)).
(§1) Monolayers of spontaneously contractile chick ventricular myocardial cells were obtained from disaggregated 10-day old chick embryo hearts by a slight modification of previously published methods (Horres, C. R., et al., In Pinson, A. (ed.), The Heart Cell in Culture, Boca Raton, CRC Press, pp. 77-108 (1987)). […] Cells were centrifuged at 400 g for 10 minutes, resuspended and combined in culture medium, counted with a hemocytometer and diluted to yield a suspension of 5×10^5 cells/ml. […]
(§2) Radioactive uptake methods have been described in detail (Piwnica-Worms, D., et al, Circ. (in press). Briefly, coverslips with confluent cells were removed from culture media and pre-equilibrated for 40-60 seconds in MEBSS buffer. Uptake and retention experiments were initiated by immersion of coverslips in 60 mm glass Pyrex dishes containing loading solution consisting of buffer with 0.1-0.6 nM [^99m Tc-MIBI] (0.01-0.4 Ci/nmole; 25-100 uCi/ml). Preparations were removed at various times and rinsed three times in 25 ml volumes of ice-cold (2° C.) isotope-free buffer for 8 seconds each to clear extracellular spaces. Preparations and aliquots of the loading buffer and stock solutions were counted in a well-type sodium iodide gamma counter after which cell protein on each coverslip was extracted in 1% sodium dodecylsulfate with 10 mM sodium borate and assayed by the method of Lowry (Lowry, O. H., et al., J. Biol. Chem. 193:265-275 (1951)). […]

[3] = system: cultured chick heart cells; assay: Effect of phloretin, alone or with TPB, on net uptake of Tc-MIBI in cultured chick heart cells (FIG. 7, 8); type: cell-based
Procedure: FIG. 7. Effect of phloretin on net accumulation of Tc-M1B1 in cultured heart cells. Preparations were incubated for the times indicated in Tc-MIBI loading buffer in the absence (.quadrature.) or presence of phloretin ( , 10^-7 M; , 10^-4 M). Each point represents the mean ±SEM of 3-4 determinations.
FIG. 8. Effect of phloretin and tetraphenylborate together on net uptake of Tc-MB1 in cultured chick heart cells. Preparations were incubated in MEBSS containing Tc-MIBI for 30 minutes in the absence (control) or presence of tetraphenylborate and phloretin each alone or in combination as indicated on the abscissa. Each group of four conditions (two groups in A and one group in B) represent separate cultures. Error bars indicate ±SEM for three or more determinations.
as §1
Radioactive uptake methods have been described in detail (Piwnica-Worms, D., et al, Circ. (in press). Briefly, coverslips with confluent cells were removed from culture media and pre-equilibrated for 40-60 seconds in MEBSS buffer. Uptake and retention experiments were initiated by immersion of coverslips in 60 mm glass Pyrex dishes containing loading solution consisting of buffer with 0.1-0.6 nM [^99m Tc-MIBI] (0.01-0.4 Ci/nmole; 25-100 uCi/ml). Preparations were removed at various times and rinsed three times in 25 ml volumes of ice-cold (2° C.) isotope-free buffer for 8 seconds each to clear extracellular spaces. […] Results were therefore expressed as fmol cellular Tc-MIBI/mg protein per nM extracellular Tc-MIBI concentration. […]

[4] = system: cultured chick heart cells; assay: Influence of TPB and CCCP on (membrane potential-independent) accumulation of Tc-MIBI (FIG. 4); type: cell-based; conditions: CCCP 5 uM; presence and absence of TPB; P<0.001
Procedure: FIG. 4. […] Preparations were incubated for the times indicated in 5.4 mM Ko control loading buffer containing tracer Tc-MIBI and TPB together (Δ) or in loading buffer containing Tc-MIBI alone (.quadrature.). For the latter incubation, TPB was added to the loading buffer at the arrow and cell content of Tc-MIBI subsequently determined (o). Under each condition, CCCP was added to the loading buffers as indicated by the arrows and cell content of Tc-MIBI determined ( , , ·). Each point is the mean ±SEM of 3 determinations.
(§3) Monolayers of spontaneously contractile chick ventricular myocardial cells were obtained from disaggregated 10-day old chick embryo hearts by a slight modification of previously published methods (Horres, C. R., et al., In Pinson, A. (ed.), The Heart Cell in Culture, Boca Raton, CRC Press, pp. 77-108 (1987)). Hearts were trimmed of connective tissue and atria, finely minced and serially exposed to 0.024% (w/v) trypsin in Ca^2+ - and Mg^2+ - free Earle's salt solution for 7 minutes at 37° C. Gentle trituration and agitation on an orbital shaker bath aided disaggregation. Cells released from the first exposure were discarded and cells aspirated from the next four exposures were then added to an equal volume of trypsin deactivating solution consisting of ice-cold culture medium. Cells were centrifuged at 400 g for 10 minutes, resuspended and combined in culture medium, counted with a hemocytometer and diluted to yield a suspension of 5×10^5 cells/ml. 12 ml of suspension were incubated in 100 mm plastic culture dishes containing 7 coverslips (25 mm diameter) placed on the bottom of each dish to serve as substrate for cell growth. Cells were maintained in a humidified atmosphere of 5% CO2 /95% air for 3-4 days yielding a confluent layer of spontaneously contractile myocytes on each coverslip.
as §2, with “(1951)). Tc-MIBI binding to glass coverslips without cells was used as an estimate of non-specific adhesion to the substrate ([…] obtained with cellular preparations); this value was subtracted from total uptake determinations to derive the cell-associated counts. Use of generator equilibrium equations (Lamson, M. L., et al., i J. Nucl. Med. 16:639-641 (1975)) allowed calculation of absolute moles of Tc-MIBI in solutions and preparations. Results were therefore expressed as fmol cellular Tc-MIBI/mg protein per nM extracellular Tc-MIBI concentration.” for “(1951)).”

cells and mitochondria = conditions: cited from earlier work; for toxic effects on mitochondrial function: typical loading activities
[5] = system: cultured chick heart cells; assay: Effect of valinomycin on tetraphenylborate enhancement of Tc-MIBI accumulation in high Ko buffer (Table 1); type: cell-based; conditions: valinomycin 1 ug/ml; high K buffer
Procedure: as §3
Radioactive uptake methods have been described in detail (Piwnica-Worms, D., et al, Circ. (in press). Briefly, coverslips with confluent cells were removed from culture media and pre-equilibrated for 40-60 seconds in MEBSS buffer. Uptake and retention experiments were initiated by immersion of coverslips in 60 mm glass Pyrex dishes containing loading solution consisting of buffer with 0.1-0.6 nM [^99m Tc-MIBI] (0.01-0.4 Ci/nmole; 25-100 uCi/ml). Preparations were removed at various times and rinsed three times in 25 ml volumes of ice-cold (2° C.) isotope-free buffer for 8 seconds each to clear extracellular spaces. Preparations and aliquots of the loading buffer and stock solutions were counted in a well-type sodium iodide gamma counter after which cell protein on each coverslip was extracted in 1% sodium dodecylsulfate with 10 mM sodium borate and assayed by the method of Lowry (Lowry, O. H., et al., J. Biol. Chem. 193:265-275 (1951)). Tc-MIBI binding to glass coverslips without cells was used as an estimate of non-specific adhesion to the substrate ([…] obtained with cellular preparations); this value was subtracted from total uptake determinations to derive the cell-associated counts. Use of generator equilibrium equations (Lamson, M. L., et al., i J. Nucl. Med. 16:639-641 (1975)) allowed calculation of absolute moles of Tc-MIBI in solutions and preparations. Results were therefore expressed as fmol cellular Tc-MIBI/mg protein per nM extracellular Tc-MIBI concentration. Division of this value by the cell water space (6.9 ul/mg protein; Chiu, M. L., et al., J. Nucl. Med. (31:1646-1653(1990)) yields a nominal intracellular/extracellular Tc-MIBI accumulation ratio neglecting subcellular compartmentation of the agent.
To further explore the influence of TPB on any potential-independent accumulation of Tc-MIBI in myocytes, preparations were exposed to 130 mM K° 20 mM Clo buffer (Table 1). […] Equilibration of intracellular and extracellular spaces occurred in the presence of high K buffer plus valinomycin under all conditions (in/out ration ~1; P=NS) indicating the lack of any significant potential-independent membrane binding of Tc-MIBI.
Preparations were incubated in high Ko low Clo loading buffer +/- valinomycin (1 ug/ml) for 20 minutes in the presence of TPB (10^-5 M) or for 40 minutes in its absence to determine peak accumulation of Tc-MIBI under each condition. Values are the mean ±SEM. Tc-MIBI in/out ratios were obtained by dividing net uptake values by the cell water space of […] (Chiu, M. L., et al., J. Nucl. 31:1646-1653 (1990)). +p<0.01; * p<0.001 compared to net uptake in 130 mM Ko buffer.

CO[C@@H]1C[C@@H](C[C@H]2CC[C@H](C)[C@H]([C@@H](C)C(=O)O)O2)O[C@]2(O[C@](C)([C@H]3CC[C@@](C)([C@@H]4O[C@@H]([C@H]5O[C@@](O)(CO)[C@H](C)C[C@@H]5C)C[C@@H]4C)O3)C[C@H]2C)[C@@H]1C [nigericin]
net cellular uptake of Tc-MIBI ([1]; nigericin, mitochondrial hyperpolarization): increases net cellular uptake of Tc-MIBI

CS(=O)(=O)O [MSA, methanesulfonate, reference compound]
uptake kinetics or equilibrium content of Tc-MIBI [2]: did not significantly alter uptake kinetics or equilibrium content of Tc-MIBI | TPB-induced enhancement of Tc-MIBI accumulation ([2]; TPB 10^-5 M): did not interfere with the TPB-induced enhancement of Tc-MIBI accumulation

CC[C@H]1/C=C/C=C/C[C@@H](C)[C@H](O)[C@@](C)(O)C(=O)[C@@H](C)[C@H](O)[C@@H](C)C(=O)[C@@H](C)[C@H](O)[C@@H](C)/C=C/C(=O)O[C@@H]2[C@H](C)[C@H](CC1)O[C@]1(CC[C@H](C)[C@H](C[C@@H](C)O)O1)[C@H]2C [oligomycin]
Tc-MIBI uptake or retention ([1]; oligomycin, mitochondrial hyperpolarization): increases Tc-MIBI uptake or retention

O=C(CCc1ccc(O)cc1)c1c(O)cc(O)cc1O [phloretin, 3-(4-hydroxyphenyl)-1-(2,4,6-trihydroxyphenyl)-1-propanone]
fold induction at 100 µM ([3]; Gallus gallus, 0.5 h, phloretin 10^-4 M, 30 minute uptake (FIG. 8), approximately, read-out: net retention of Tc-MIBI above control levels): 2.5 to 3.5 | additive enhancement by tetraphenylborate and phloretin ([3]; phloretin 10^-4 M and 10^-5 M with 10^-5 M TPB, 30 minutes): no evidence of additive enhancement by tetraphenylborate and phloretin | net uptake of Tc-MIBI enhanced above control ([3]; phloretin 10^-4 M, within 30 minutes (FIG. 7)): five-fold

N#CC(C#N)=NNc1cccc(Cl)c1 [CCCP, carbonyl cyanide-m-chlorphenylhydrazone, reference compound]
release of myocellular Tc-MIBI [4]: rapid and near complete release of myocellular Tc-MIBI | unidirectional influx and net cellular accumulation of Tc-MIBI ([1]; CCCP, mitochondrial depolarization): decreases the unidirectional influx and net cellular accumulation of TC-MIBI

COC(=O)c1ccccc1-c1c2ccc(=N)cc-2oc2cc(N)ccc12 [rhodamine 123]
toxicity to cells and mitochondria (cells and mitochondria): shown to be toxic to cells and mitochondria | toxic effects on mitochondrial function (cells and mitochondria): toxic effects on mitochondrial function

c1ccc([P+](c2ccccc2)(c2ccccc2)c2ccccc2)cc1 [TPP^+, tetraphenylphosphonium]
toxic effects on mitochondrial function (cells and mitochondria): toxic effects on mitochondrial function

[N-]=[N+]=[N-] [sodium azide]
net uptake of Tc-MIBI ([1]; sodium azide in combination with oligomycin): virtually eliminates net uptake of the agent

CC(C)[C@@H]1NC(=O)[C@H](C)OC(=O)[C@@H](C(C)C)NC(=O)[C@@H](C(C)C)OC(=O)[C@H](C(C)C)NC(=O)[C@H](C)OC(=O)[C@@H](C(C)C)NC(=O)[C@@H](C(C)C)OC(=O)[C@H](C(C)C)NC(=O)[C@H](C)OC(=O)[C@@H](C(C)C)NC(=O)[C@@H](C(C)C)OC1=O [valinomycin, reference compound]
net accumulation of Tc-MIBI [5]: eliminated net accumulation of Tc-MIBI
